Tests used:
[1] = target: 5-hydroxytryptamine receptor 7 (Homo sapiens, UniProt P34969); test: Binding affinity at human cloned 5-hydroxytryptamine 7 receptor.
[2] = target: 5-hydroxytryptamine receptor 2A (Homo sapiens, UniProt P28223); test: Binding affinity at human cloned 5-hydroxytryptamine 2A receptor.
[3] = target: 5-hydroxytryptamine receptor 1D (Homo sapiens, UniProt P28221); test: Binding affinity towards cloned human 5-hydroxytryptamine 1D receptor
[4] = target: T1, 5-hydroxytryptamine receptor 1A (Homo sapiens, UniProt P08908); test: Binding affinity towards 5-hydroxytryptamine 1A receptor in human using [3H]8-OH-DPAT as radioligand
T1 sequence (P08908 whole entry): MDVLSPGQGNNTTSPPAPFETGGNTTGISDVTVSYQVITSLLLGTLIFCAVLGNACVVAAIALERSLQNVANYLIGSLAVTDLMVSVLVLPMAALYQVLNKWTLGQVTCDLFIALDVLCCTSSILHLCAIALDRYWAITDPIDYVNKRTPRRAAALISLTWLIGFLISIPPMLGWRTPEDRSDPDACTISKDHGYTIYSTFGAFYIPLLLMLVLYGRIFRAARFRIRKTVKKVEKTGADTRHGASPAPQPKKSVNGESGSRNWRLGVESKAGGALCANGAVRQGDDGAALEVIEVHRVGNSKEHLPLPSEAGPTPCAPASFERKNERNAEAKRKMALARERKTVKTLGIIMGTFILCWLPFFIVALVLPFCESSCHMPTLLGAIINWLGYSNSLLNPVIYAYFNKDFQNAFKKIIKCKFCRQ

[5] = target: 5-hydroxytryptamine receptor 2B (Homo sapiens, UniProt P41595); test: Binding affinity towards cloned human 5-hydroxytryptamine 2B receptor was determined
Cytochrome P450 1A2 = target: T2, Cytochrome P450 1A2 (Homo sapiens, UniProt P05177); test: Inhibition of human Cytochrome P450 1A2; type: ADME
T2 sequence (P05177 whole entry): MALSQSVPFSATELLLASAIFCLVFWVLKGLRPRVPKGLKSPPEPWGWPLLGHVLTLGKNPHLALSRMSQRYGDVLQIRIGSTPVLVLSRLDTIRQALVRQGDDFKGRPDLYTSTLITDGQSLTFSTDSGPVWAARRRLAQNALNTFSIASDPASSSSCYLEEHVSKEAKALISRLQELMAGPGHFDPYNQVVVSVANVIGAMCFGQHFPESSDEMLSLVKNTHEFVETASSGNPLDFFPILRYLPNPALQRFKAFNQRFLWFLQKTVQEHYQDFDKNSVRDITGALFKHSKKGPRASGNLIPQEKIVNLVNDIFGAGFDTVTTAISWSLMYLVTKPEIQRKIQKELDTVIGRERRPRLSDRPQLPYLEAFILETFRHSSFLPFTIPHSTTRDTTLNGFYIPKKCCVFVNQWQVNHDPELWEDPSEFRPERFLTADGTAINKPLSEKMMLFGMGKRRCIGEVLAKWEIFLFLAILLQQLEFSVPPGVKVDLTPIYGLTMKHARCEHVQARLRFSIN

[6] = target: 5-hydroxytryptamine receptor 1E (Homo sapiens, UniProt P28566); test: Binding affinity towards cloned human 5-hydroxytryptamine 1E receptor was determined
Cytochrome P450 3A4 = Cytochrome P450 3A4 (Homo sapiens, UniProt P08684); test: Inhibition of human Cytochrome P450 3A4; type: ADME
[7] = target: 5-hydroxytryptamine receptor 6 (Homo sapiens, UniProt P50406); test: Binding affinity towards human 5-hydroxytryptamine 6 receptor
D(3) dopamine receptor = D(3) dopamine receptor (Homo sapiens, UniProt P35462); test: Binding affinity towards cloned human dopamine D3 receptor was determined
Cytochrome P450 2D6 = Cytochrome P450 2D6 (Homo sapiens, UniProt P10635); test: Inhibition of human Cytochrome P450 2D6; type: ADME
[8] = target: 5-hydroxytryptamine receptor 1B (Homo sapiens, UniProt P28222); test: Binding affinity towards cloned human 5-hydroxytryptamine 1B receptor was determined
Cytochrome P450 2C9 = Cytochrome P450 2C9 (Homo sapiens, UniProt P11712); test: Inhibition of human cytochrome P450 isoform 2C9; type: ADME
D(4) dopamine receptor = target: T3, D(4) dopamine receptor (Homo sapiens, UniProt P21917); test: Binding affinity towards cloned human dopamine D4 receptor was determined
T3 sequence (P21917 whole entry): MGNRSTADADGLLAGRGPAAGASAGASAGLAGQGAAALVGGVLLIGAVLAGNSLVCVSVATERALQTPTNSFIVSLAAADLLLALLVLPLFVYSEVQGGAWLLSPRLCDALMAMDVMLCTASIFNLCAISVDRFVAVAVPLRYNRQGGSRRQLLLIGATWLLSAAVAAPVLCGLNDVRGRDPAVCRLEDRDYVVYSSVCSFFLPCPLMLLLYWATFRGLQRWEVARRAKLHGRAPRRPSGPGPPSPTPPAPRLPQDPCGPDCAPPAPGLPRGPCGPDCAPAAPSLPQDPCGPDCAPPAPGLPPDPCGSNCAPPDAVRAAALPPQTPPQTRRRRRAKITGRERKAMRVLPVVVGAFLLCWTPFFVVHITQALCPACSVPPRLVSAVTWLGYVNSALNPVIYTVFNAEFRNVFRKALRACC

[9] = target: 5-hydroxytryptamine receptor 5A (Homo sapiens, UniProt P47898); test: Binding affinity towards cloned human 5-HT5A receptor was determined
[10] = target: T4, 5-hydroxytryptamine receptor 2C (Homo sapiens, UniProt P28335); test: Binding affinity towards cloned human 5-hydroxytryptamine 2C receptor was determined
T4 sequence (P28335 whole entry): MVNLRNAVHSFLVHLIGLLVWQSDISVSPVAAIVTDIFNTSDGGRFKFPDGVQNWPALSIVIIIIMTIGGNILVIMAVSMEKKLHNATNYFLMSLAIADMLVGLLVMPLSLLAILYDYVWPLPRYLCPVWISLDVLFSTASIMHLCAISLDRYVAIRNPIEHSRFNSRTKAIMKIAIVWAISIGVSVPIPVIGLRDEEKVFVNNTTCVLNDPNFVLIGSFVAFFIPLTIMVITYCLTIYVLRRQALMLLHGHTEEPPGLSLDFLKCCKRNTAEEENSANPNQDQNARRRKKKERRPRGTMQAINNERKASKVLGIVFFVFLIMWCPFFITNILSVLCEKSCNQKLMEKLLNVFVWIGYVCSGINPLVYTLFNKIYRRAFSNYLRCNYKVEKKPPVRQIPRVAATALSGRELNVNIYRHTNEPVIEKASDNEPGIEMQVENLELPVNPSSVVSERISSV

Cytochrome P450 2C19 = Cytochrome P450 2C19 (Homo sapiens, UniProt P33261); test: Inhibition of human Cytochrome P450 2C19; type: ADME
[11] = target: T5, 5-hydroxytryptamine receptor 1F (Homo sapiens, UniProt P30939); test: Binding affinity towards cloned human 5-hydroxytryptamine 1F receptor was determined
T5 sequence (P30939 whole entry): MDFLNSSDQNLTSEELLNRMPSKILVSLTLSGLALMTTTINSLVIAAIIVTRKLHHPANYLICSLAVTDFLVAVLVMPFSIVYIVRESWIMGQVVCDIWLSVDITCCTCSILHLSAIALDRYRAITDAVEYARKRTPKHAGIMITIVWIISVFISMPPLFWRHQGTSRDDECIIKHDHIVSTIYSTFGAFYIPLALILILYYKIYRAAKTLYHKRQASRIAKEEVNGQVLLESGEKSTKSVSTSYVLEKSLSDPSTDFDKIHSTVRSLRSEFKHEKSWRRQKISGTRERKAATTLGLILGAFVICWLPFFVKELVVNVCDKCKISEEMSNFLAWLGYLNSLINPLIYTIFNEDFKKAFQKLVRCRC

5-hydroxytryptamine receptor 7, sequence (P34969 whole entry): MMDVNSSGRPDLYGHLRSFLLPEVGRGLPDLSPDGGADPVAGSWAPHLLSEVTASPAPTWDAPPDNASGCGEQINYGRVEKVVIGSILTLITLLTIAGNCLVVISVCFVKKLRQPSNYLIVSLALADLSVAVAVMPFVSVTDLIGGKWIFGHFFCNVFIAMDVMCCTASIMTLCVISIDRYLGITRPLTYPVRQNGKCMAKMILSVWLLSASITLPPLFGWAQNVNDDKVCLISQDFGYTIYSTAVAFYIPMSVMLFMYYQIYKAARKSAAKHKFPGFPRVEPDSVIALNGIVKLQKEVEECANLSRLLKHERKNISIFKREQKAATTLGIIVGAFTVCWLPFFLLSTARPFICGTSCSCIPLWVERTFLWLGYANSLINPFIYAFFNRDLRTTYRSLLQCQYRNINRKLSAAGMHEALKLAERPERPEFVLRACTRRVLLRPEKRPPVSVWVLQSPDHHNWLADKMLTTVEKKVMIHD
5-hydroxytryptamine receptor 2A, sequence (P28223 whole entry): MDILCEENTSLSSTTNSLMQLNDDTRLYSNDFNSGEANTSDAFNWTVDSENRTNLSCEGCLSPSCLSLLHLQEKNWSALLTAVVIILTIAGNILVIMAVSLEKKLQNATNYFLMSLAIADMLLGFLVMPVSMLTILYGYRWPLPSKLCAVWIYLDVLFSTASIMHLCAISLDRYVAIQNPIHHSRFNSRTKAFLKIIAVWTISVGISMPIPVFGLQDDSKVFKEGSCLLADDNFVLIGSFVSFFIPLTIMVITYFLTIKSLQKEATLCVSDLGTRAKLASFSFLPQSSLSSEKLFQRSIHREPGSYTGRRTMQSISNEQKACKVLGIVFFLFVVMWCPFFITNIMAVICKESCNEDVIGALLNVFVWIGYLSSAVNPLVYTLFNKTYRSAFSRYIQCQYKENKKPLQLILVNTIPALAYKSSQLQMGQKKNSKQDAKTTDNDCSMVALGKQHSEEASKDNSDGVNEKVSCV
5-hydroxytryptamine receptor 2B, sequence (P41595 whole entry): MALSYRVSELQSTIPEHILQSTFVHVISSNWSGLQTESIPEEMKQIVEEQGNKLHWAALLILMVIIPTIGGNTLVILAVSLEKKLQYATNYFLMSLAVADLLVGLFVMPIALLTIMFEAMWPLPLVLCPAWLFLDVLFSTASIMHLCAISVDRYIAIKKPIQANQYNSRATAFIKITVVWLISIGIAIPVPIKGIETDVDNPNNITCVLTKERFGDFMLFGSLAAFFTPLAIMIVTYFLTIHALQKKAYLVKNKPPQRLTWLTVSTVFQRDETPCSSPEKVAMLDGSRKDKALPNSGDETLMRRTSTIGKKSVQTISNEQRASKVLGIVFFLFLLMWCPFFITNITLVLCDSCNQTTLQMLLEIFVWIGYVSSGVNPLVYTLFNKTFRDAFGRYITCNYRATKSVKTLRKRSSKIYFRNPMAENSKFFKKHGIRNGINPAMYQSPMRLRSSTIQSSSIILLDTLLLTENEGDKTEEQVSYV
Cytochrome P450 3A4, sequence (P08684 whole entry): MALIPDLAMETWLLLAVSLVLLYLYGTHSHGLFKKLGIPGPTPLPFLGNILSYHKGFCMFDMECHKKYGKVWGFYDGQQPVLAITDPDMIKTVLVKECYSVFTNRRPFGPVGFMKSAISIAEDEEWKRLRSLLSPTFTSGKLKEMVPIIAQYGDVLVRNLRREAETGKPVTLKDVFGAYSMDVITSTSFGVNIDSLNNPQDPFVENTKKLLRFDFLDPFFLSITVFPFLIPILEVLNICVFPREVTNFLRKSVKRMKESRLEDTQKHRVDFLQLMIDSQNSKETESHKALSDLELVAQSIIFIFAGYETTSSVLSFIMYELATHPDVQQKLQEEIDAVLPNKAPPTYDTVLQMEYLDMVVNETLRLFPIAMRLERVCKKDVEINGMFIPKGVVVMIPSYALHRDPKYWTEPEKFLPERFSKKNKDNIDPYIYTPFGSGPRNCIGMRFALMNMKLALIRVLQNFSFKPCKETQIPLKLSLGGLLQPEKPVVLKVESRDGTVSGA
5-hydroxytryptamine receptor 1D, sequence (P28221 whole entry): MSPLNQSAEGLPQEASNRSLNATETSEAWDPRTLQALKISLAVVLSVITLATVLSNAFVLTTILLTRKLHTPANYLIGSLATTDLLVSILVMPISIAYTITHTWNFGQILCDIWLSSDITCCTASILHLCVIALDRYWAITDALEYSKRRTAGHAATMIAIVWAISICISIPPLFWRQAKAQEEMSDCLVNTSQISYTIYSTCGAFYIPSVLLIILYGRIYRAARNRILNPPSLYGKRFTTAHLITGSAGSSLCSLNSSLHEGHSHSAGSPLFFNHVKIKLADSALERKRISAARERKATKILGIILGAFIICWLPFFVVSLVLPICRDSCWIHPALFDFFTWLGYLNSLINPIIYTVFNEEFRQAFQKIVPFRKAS
5-hydroxytryptamine receptor 1E, sequence (P28566 whole entry): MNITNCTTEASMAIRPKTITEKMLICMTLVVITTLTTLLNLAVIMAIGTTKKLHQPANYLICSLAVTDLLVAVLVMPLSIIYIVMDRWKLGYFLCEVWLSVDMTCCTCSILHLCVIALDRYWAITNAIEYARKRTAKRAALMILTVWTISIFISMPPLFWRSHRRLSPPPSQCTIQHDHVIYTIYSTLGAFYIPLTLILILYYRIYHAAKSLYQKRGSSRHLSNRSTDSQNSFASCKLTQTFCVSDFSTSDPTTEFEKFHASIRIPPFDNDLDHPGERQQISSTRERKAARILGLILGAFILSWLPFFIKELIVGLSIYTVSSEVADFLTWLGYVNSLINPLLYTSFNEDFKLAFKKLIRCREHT
5-hydroxytryptamine receptor 6, sequence (P50406 whole entry): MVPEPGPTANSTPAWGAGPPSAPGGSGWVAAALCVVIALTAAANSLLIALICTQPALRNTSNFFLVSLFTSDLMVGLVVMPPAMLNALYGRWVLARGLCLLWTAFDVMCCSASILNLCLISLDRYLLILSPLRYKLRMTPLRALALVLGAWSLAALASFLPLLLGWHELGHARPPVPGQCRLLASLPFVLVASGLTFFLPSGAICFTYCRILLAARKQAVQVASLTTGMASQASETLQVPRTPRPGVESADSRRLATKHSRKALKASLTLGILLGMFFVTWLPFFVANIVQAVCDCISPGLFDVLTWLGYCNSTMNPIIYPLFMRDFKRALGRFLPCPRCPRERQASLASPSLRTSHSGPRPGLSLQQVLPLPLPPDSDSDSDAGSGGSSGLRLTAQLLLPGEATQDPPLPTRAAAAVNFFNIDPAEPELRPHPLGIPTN
5-hydroxytryptamine receptor 1B, sequence (P28222 whole entry, canonical isoform): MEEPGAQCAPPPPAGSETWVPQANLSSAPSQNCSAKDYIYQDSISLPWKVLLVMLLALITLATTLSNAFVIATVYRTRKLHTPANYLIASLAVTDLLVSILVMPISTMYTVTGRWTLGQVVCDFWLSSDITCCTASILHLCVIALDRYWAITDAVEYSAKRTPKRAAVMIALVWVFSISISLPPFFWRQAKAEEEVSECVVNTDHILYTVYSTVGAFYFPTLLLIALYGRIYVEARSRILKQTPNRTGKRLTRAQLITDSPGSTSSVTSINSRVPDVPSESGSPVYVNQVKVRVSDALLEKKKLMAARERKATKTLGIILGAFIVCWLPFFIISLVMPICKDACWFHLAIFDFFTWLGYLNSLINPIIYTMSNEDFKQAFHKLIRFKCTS
Cytochrome P450 2C9, sequence (P11712 whole entry, canonical isoform): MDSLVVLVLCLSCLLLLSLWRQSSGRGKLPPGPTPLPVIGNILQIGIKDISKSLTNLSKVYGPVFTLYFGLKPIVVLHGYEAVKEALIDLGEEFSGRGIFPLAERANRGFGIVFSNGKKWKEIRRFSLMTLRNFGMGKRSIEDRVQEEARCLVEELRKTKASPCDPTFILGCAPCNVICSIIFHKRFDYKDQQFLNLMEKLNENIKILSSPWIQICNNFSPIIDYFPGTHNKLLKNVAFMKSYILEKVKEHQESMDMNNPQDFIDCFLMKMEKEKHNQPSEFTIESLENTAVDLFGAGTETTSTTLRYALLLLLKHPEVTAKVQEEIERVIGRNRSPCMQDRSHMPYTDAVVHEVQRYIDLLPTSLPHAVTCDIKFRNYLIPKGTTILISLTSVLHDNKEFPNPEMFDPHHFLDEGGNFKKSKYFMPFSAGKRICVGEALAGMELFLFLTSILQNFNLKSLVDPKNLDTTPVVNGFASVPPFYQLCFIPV
5-hydroxytryptamine receptor 5A, sequence (P47898 whole entry): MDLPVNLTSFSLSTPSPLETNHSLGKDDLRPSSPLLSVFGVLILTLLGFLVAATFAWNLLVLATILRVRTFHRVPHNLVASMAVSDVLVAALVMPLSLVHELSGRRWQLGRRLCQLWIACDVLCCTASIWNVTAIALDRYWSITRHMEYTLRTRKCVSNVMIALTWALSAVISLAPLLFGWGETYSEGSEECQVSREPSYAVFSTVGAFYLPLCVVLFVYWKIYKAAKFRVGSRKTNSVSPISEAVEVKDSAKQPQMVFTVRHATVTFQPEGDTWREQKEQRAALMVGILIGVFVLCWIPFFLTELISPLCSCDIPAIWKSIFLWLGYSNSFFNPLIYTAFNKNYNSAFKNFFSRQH
D(3) dopamine receptor, sequence (P35462 whole entry): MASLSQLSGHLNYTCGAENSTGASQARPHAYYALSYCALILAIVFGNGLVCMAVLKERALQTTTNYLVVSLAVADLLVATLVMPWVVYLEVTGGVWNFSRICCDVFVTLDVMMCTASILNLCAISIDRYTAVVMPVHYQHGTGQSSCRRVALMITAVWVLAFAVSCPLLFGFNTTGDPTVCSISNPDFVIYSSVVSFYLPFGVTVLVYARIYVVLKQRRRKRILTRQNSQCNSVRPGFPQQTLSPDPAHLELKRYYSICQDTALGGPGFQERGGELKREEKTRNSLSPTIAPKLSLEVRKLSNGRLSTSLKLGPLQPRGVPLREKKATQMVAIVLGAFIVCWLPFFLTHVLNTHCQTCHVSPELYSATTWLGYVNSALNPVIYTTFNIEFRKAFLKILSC

| Compound | Ki [1] [nM] | Ki [2] [nM] | other results |
| --- | --- | --- | --- |
| O=C1c2ccccc2CCCN1CCN1CCC(n2nnc3ccccc32)CC1 | 14.1 | 269 |  |
| Cc1ccccc1OC1CCN(CCC2CCCc3ccccc3C2=O)CC1 (stereo not given) | 11.2 |  |  |
| COc1ccccc1C1CCN(CC2CCc3ccccc3C(=O)C2)CC1 (stereo not given) | 11.2 |  |  |
| O=C1c2ccccc2CCCN1CCN1CCC(n2ccc3cc(F)ccc32)CC1 | 0.562 | 6.92 |  |
| O=C1c2ccccc2CCCC1CCN1CCC(Oc2ccccc2)CC1 (stereo not given) | 25.1 |  |  |
| O=C1c2ccccc2CCCN1CCN1CCC(n2ccc3ccccc32)CC1 | 2.75 | 19.5 |  |
| O=C1c2ccccc2CCCN1CCN1CCC(n2c(=O)oc3ccccc32)CC1 | 27.5 | 977 |  |
| O=C1c2ccccc2CCCN1CCN1CCC(n2c(=O)[nH]c3cc(F)ccc32)CC1 | 2.24 | 302 | Ki [3]: 2400 nM; Ki [4]: 479 nM; Ki [5]: 1000 nM; IC50 (Cytochrome P450 1A2): 62000 nM; Ki [6]: > 10000 nM; IC50 (Cytochrome P450 3A4): > 100000 nM; Ki [7]: > 5010 nM; Ki (D(3) dopamine receptor): 1700 nM; IC50 (Cytochrome P450 2D6): 10000 nM; Ki [8]: > 3980 nM; IC50 (Cytochrome P450 2C9): 35000 nM; Ki (D(4) dopamine receptor): 1230 nM; Ki [9]: 1480 nM; Ki [10]: 3310 nM; IC50 (Cytochrome P450 2C19): > 100000 nM; Ki [11]: > 10000 nM |
| O=C1c2ccccc2CCCN1CCN1CCC(n2c(O)nc3ccccc32)CC1 | 10.2 | > 1580 |  |
| O=C(c1ccc(F)cc1)C1CCN(CCN2CCCc3ccccc3C2=O)CC1 | 1.66 | 17 |  |
| O=C1c2ccccc2CCCN1CCN1CCC(c2c[nH]c3ccccc23)CC1 | 0.407 | 1.7 |  |
| O=C1c2ccccc2CCCN1CCN1CCC(n2nnc3cc(F)ccc32)CC1 | 2.04 | 49 |  |
| O=C1CC(CN2CCC(Oc3ccccc3)CC2)CCc2ccccc21 (stereo not given) | 18.6 |  |  |
| O=C(c1ccc(Cl)cc1)C1CCN(CCN2CCCc3ccccc3C2=O)CC1 | 2.51 | 77.6 |  |
| Cc1ccc(OC2CCN(CCN3CCCc4ccccc4C3=O)CC2)cc1 | 9.12 | 55 |  |
| O=C1c2ccccc2CCCN1CCN1CCC(n2c(=O)oc3cc(F)ccc32)CC1 | 9.33 | 186 |  |
| O=C1c2ccccc2CCCN1CCN1CCC(Oc2ccc(Cl)cc2)CC1 | 11.7 | 74.1 |  |
| O=C1c2ccccc2CCCN1CCN1CCC(Oc2ccc(F)cc2)CC1 | 4.47 | 31.6 |  |
| O=C1c2ccccc2CCCN1CCN1CCC(Oc2ccccc2)CC1 | 20.4 | 155 |  |
